Reference: patent publication US7645588B2, “Composition comprising a cell comprising a STIM1 protein and an agent that modulates intracellular calcium and methods of use” (CalciMedica, Inc., priority 2003, dated 2010)
Like-named read-outs stand apart in the source and are kept apart here.

Key:
[1] = test system: STIM1-induced Ca2+ entry; conditions: HEK[STIM1] cells, absence of store depletion
Procedure: (§1) For stable cell lines overexpressing STIM1, pcDNA[STIM1/542-5] was transfected into 3×10^5 HEK293 cells using Effectene (QIAGEN) transfection reagent following the manufacturer's protocol. Forty-eight hours after transfection, cells were harvested and replated under selection with 250 μg/ml Zeocin (Invitrogen). Colonies were selected, amplified, and evaluated for expression of STIM1 mRNA and protein by RT-PCR and western blot, respectively. Limiting dilution of the STIM1 overexpressing colonies generated individual clones.

[2] = test system: store-operated calcium entry (SOCE); conditions: read-out: IC50 for inhibition of calcium entry; HEK[STIM1] cells; thapsigargin-mediated store depletion followed by readdition of external calcium
Procedure: as §1

[3] = test system: store-operated calcium entry (SOCE); conditions: read-out: IC50 for inhibition of calcium entry; HEK-Zeo control cells; thapsigargin-mediated store depletion followed by readdition of external calcium
[4] = test system: Jurkat T cells; assay: IL-2 secretion from Jurkat T cells (ELISA); type: cell-based, human; conditions: Jurkat clone 4A5; 2.5 μg/ml PHA + 80 nM TPA for 20 hours
Source text: To test this prediction, a stable Jurkat T cell line expressing a short hairpin siRNA to suppress expression of STIM1 was generated as follows. Oligonucleotides corresponding to the STIM1-1140 siRNA (sense oligo, 5′-GATCCCGGCTCTGGATACAGTGCTCTTCAAGAGAGAGCACTGTATCCAGAGCCTTTTTTGGAAA-3′ SEQ ID NO: 99; antisense oligo, 5′-AGCTTTTCCAAAAAAGGCTCTGGATACAGTGCTCTCTCTTGAAGAGCACTGTATCCAGAGCCGG-3′ SEQ ID NO: 100) were annealed and ligated into pSilencer 2.1-U6 neo (Ambion) according to the manufacturer's protocol. Correct inserts were verified by DNA sequencing. For the control, a non-silencing scrambled siRNA (Negative Control oligo; Ambion) was generated as above. 2×10^6 Jurkat T cells were electroporated with 5 μg plasmid using a Bio-Rad Gene Pulser (140V, 30 msec, 4 pulses). Two days after transfection, cells were harvested and resuspended in media containing G-418 selection at a concentration of 1×10^4 cells/ml. 1 ml of cells/well was plated in 24-well plates. […]
To measure IL-2 secretion from Jurkat T cells, cells were plated in a 96 well plate at a density of 1.5×10^5 cells/well. […] The media was collected and analyzed for IL-2 levels by ELISA (BioSource) according to the manufacturer's protocols. […]

Row | Molecule | effect on calcium entry at lower concentrations ([1]; lower concentrations of 2-APB (biphasic effect)) | IC50 ([1]; read-out: IC50 for inhibition of constitutive calcium entry) [µM] | IC50 [2] [µM] | IC50 [3] [µM] | secretion of IL-2 upon stimulation [4]
1 | NCCOB(c1ccccc1)c1ccccc1 [2-APB, 2-aminoethoxydiphenyl borate] | potentiated | 10.8 | 10.5 | 11.8 | 
2 | STIM1-1140 short hairpin siRNA: Short hairpin siRNA corresponding to STIM1-1140, expressed from pSilencer 2.1-U6 neo in stable Jurkat clone 4A5 (nucleic acid, target site or template, no part of the molecule) chain 1: GATCCCGGCTCTGGATACAGTGCTCTTCAAGAGAGAGCACTGTATCCAGAGCCTTTTTTGGAAA chain 2: AGCTTTTCCAAAAAAGGCTCTGGATACAGTGCTCTCTCTTGAAGAGCACTGTATCCAGAGCCGG |  |  |  |  | completely blocked
